Data as given in PMC10137179, “Assessment of Covalently Binding Warhead Compounds in the Validation of the Cytomegalovirus Nuclear Egress Complex as an Antiviral Target” (Cells, 2023).

How the values were obtained:
[1] = biological target: T1, HCMV pUL50-HA + pUL53-Flag (Human cytomegalovirus, UniProt P16791); assay: Confocal imaging of core NEC localization in cotransfected HeLa cells, HCMV; assay type: cell-based; settings: 4 µM, 3 d p.t.
T1 construct: expressed in transfected cells; host or cells: HeLa
Experimental: HFF or HFF-UL50 cells, either Dox-induced or uninduced, were seeded in 6-well plates with a density of 2 × 10^5 cells per well, grown on coverslips and infected with HCMV AD169 or AD169 ∆UL50-ΣUL53. For infection experiments with the recombinant virus, different Shield-1 and Dox conditions were analyzed. Antivirals were added post-infection as described for the experiments. For transfection experiments, HeLa cells were seeded on coverslips in 6-well plates with a density of 3.25 × 10^5 cells per well for cotransfection with the indicated NEC expression plasmids (HSV-1 HA-UL34 + Flag-UL31, HCMV pUL50-HA + pUL53-Flag and EBV HA-BFRF1 + Flag-BFLF2). At indicated time points after virus infection, or 3 days post-transfection, cells were fixed, applied for IF staining as described previously and analyzed using a TCS SP5 confocal laser-scanning microscope with Leica LAS AF software (Leica Microsystems, Wetzlar, Germany). […] The device features a Leica photomultiplier tube (PMT) and a hybrid detector (HyD). Images were further processed using Photoshop CS5 (Adobe Inc., San José, CA, USA). […] Microscopic counting was performed for quantitation of colocalization patterns of two different proteins, as achieved by counting 50 cells per biological triplicate. […]

pUL50-HA + pUL53-Flag = biological target: T2, pUL50-HA + pUL53-Flag (Human cytomegalovirus, UniProt P16791); assay: Coimmunoprecipitation (CoIP) of pUL50-HA and pUL53-Flag from cotransfected 293T cells; assay type: binding, HCMV; settings: serial concentrations, mostly at 20–40 µM; added 24 h p.t. or after cell lysis
T2 construct: expressed in transfected cells; host or cells: 293T
Experimental: For CoIP analysis, 293T cells were seeded in 10 cm dishes with a density of 5 × 10^6 cells and used for transient transfection with expression plasmids. Then, 2–3 days post-transfection (d p.t.), CoIP was performed as described previously, using mAb-HA (H9658, Sigma-Aldrich, St. Louis, MO, USA). In brief, cells were lysed in 500 μL CoIP buffer (50 mM Tris/HCl (pH 8.0), 150 mM NaCl, 5 mM EDTA, 0.5% NP-40, 1 mM PMSF, 2 μg/mL aprotinin, 2 μg/mL leupeptin and 2 μg/mL pepstatin). Subsequently, total lysates were incubated with antibody-coated (2 μL of tag-specific or control antibodies) Dynabeads® Protein A (30 μL per sample; Life Technologies, Carlsbad, CA, USA) for 2 h at 4 °C under rotation. The precipitates were washed five times with 1 mL of CoIP buffer. CoIP samples and lysate controls were taken prior to the addition of the CoIP antibody. SDS-PAGE and standard Western blot analysis of cell lysates was performed using equal protein amounts as described previously. […]
In both cases, total lysates were prepared at 48 h p.t., and the CoIP analysis was performed under continued drug treatment (Figure S3). The protein applied as the basis for IP (using tag-specific mAb-HA) was pUL50-HA, and pUL53-Flag was detected as the CoIP partner. […]

T2 sequence (P16791 whole entry): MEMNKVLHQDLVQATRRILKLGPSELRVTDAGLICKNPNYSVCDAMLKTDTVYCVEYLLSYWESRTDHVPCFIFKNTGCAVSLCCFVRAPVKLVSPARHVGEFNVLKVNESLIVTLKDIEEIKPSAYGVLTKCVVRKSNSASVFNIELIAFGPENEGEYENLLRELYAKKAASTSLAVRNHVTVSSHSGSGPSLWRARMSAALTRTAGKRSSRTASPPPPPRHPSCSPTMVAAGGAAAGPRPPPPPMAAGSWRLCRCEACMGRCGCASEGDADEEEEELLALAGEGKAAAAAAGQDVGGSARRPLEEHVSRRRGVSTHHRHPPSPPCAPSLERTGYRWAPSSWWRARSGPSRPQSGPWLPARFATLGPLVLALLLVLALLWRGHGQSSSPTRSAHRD
T1 sequence (P16791 whole entry): as above

C=CC(=O)N1CCC[C@@H](n2nc(-c3ccc(Oc4ccccc4)cc3)c3c(N)ncnc32)C1 [ibrutinib]
core NEC nuclear rim localization (in words) [1]: predominant dot-like aggregation and speckle formation
coimmunoprecipitated pUL53-Flag (in words) (pUL50-HA + pUL53-Flag): trend of a reduction in coimmunoprecipitated pUL53-Flag
